Experimental data from patent publication US11471458B2, “Diacylglycerol acyl transferase 2 inhibitor” (Pfizer Inc., priority 2019, dated 2022).

Experiments:
[1] = Intrinsic clearance in human liver microsomes; format: in vitro ADME; settings: human liver microsome assay; 1 μM test compound, 0.806 mg/mL protein, NADPH, pH 7.4, 37° C.; mean +/− STD Dev
Description: The incubations were conducted at 37° C. […] (Sorvall RC 3C Plus, Thermo Scientific, Waltham, Mass.).

[2] = Determination of pKa (capillary electrophoresis, Analiza, Inc.); format: physicochemical; settings: mean
human hepatocytes [3] = test: High throughput determination of intrinsic clearance in human hepatocytes; format: in vitro ADME; settings: high throughput human hepatocyte assay; 0.5 million cells/mL, 1 μM test compound, 37° C.; mean +/− Std Dev
Description: The incubation was carried out at 37° C. […] The samples were centrifuged (Eppendorf, Hauppauge, N.Y.) at 3000 rpm for 5 min at 4° C.

human hepatocytes [4] = test: Intrinsic clearance in human hepatocytes (relay method); format: in vitro ADME; settings: 1 μM, 20 h total incubation, mean +/− standard deviation
Description: For intrinsic clearance (CLint) measurement, hepatocyte relay method was used (Di, L., et al. 2012, Drug Metab. Dispos., 40, 1860-1865 and Di, L., et al. 2013, Drug Metab. Dispos., 41, 2018-2023). Cryopreserved human hepatocytes (Lot DCM from BioreclamationlVT) were used. Upon thawing, the hepatocytes were resuspended in Williams' medium E (custom formula number 91-5233EA; Gibco, Grand Island, N.Y.) supplemented with Hepes and Na2CO3. […] The plates were incubated at 37° C. with 95% air/5% CO2, 75% relative humidity for 4 h at 150 rpm in a humidified incubator. At time 0 and 4 h, 25 μL of hepatocyte suspension was removed from the incubation and added to 50 μL of ice-cold acetonitrile (containing metoprolol, indomethacin, and terfenadine as internal standards) to quench the reaction. The samples were centrifuged (Eppendorf, Hauppauge, N.Y.) at 3000 rpm (1439×g) for 10 min at room temperature, and 50 μL of supernatant was transferred to a clean plate, dried completely, and reconstituted before liquid chromatography/tandem mass spectrometry (LC-MS/MS) analysis. The remaining hepatocyte suspensions in the incubation plate were centrifuged (3000 rpm, 1439×g, 10 min, room temperature). The supernatant of 300 μL was transferred to a clean 24-well plate and stored at −80° C. until the next relay experiment. For the second relay experiment, the supernatant plates were warmed first to room temperature for 30 minutes, then to 37° C. for 30 min, and hepatocytes were added to the samples to give a final cell density of 0.5 million cells/mL. The plates were incubated at 37° C. for 4 h, sampled, and processed as described above. Five relays were performed to give a total incubation time of 20 h, with sampling points at (0, 4, 8, 12, 16 and 20 h). The concentrations of test compound determined at each time point by the LC-MS/MS analysis were used to calculate the intrinsic clearance.

CCOc1cccnc1Oc1cncc(-c2ncc(C(=O)NC3(CO)CCOC3)cn2)c1 (single isomer, unassigned) [WO2018033832 Ex. 6b]
CLint (μL/min/mg) (+/− STD Dev) [1]: <11 ± 3.5 µL/min/mg | Basic pKa (most basic pKa) [2]: 2.4 | CLint (μL/min/10^6 cells) (+/− Std Dev) (human hepatocytes [3]): <3.3 +/− 0.49 μL/min/10^6 cells | CLint (+/− Std Dev), relay hepatocyte assay (human hepatocytes [4]): 2.9 +/− 0.057 μL/min/million cells
